In ChEMBL document CHEMBL1158757, “Ophiocerins A-D and ophioceric acid: tetrahydropyran derivatives and an africane sesquiterpenoid from the freshwater aquatic fungus Ophioceras venezuelense” (J Nat Prod, 2005):
Activity calls are given as the source filed them.

Key:
Type in all cases: functional, organism-based
Candida albicans = assay: Antifungal activity against Candida albicans at 200 ug/disk
Escherichia coli = assay: Antimicrobial activity against Escherichia coli at 200 ug/disk
Staphylococcus aureus = assay: Antibacterial activity against Staphylococcus aureus at 200 ug/disk

Measured: Activity

CC1=C2CC(C)(C)C[C@H]3C[C@@]3(C(=O)O)[C@@H]2CC1=O
inactive: Candida albicans | Escherichia coli | Staphylococcus aureus

C[C@@H]1C[C@@H](O)[C@@H](O)CO1
inactive: Candida albicans | Escherichia coli | Staphylococcus aureus

C[C@@H]1C[C@H](O)[C@@H](O)CO1
inactive: Candida albicans | Escherichia coli | Staphylococcus aureus

C[C@@H]1C[C@@H](O)[C@H](O)CO1
inactive: Candida albicans | Escherichia coli | Staphylococcus aureus

C/C=C\C(=O)O[C@@H]1[C@H](O)[C@@H](O)CO[C@@H]1C
inactive: Candida albicans | Escherichia coli | Staphylococcus aureus
